Assay results taken from the Kinase Knowledgebase extract (Sharma et al. 2016).

How the values were obtained:
EGFR (human) = EGFR (human) (UniProt P00533); conditions: a431
EGFR = EGFR (UniProt P00533)
EGFR, sequence (P00533 whole entry, looked up): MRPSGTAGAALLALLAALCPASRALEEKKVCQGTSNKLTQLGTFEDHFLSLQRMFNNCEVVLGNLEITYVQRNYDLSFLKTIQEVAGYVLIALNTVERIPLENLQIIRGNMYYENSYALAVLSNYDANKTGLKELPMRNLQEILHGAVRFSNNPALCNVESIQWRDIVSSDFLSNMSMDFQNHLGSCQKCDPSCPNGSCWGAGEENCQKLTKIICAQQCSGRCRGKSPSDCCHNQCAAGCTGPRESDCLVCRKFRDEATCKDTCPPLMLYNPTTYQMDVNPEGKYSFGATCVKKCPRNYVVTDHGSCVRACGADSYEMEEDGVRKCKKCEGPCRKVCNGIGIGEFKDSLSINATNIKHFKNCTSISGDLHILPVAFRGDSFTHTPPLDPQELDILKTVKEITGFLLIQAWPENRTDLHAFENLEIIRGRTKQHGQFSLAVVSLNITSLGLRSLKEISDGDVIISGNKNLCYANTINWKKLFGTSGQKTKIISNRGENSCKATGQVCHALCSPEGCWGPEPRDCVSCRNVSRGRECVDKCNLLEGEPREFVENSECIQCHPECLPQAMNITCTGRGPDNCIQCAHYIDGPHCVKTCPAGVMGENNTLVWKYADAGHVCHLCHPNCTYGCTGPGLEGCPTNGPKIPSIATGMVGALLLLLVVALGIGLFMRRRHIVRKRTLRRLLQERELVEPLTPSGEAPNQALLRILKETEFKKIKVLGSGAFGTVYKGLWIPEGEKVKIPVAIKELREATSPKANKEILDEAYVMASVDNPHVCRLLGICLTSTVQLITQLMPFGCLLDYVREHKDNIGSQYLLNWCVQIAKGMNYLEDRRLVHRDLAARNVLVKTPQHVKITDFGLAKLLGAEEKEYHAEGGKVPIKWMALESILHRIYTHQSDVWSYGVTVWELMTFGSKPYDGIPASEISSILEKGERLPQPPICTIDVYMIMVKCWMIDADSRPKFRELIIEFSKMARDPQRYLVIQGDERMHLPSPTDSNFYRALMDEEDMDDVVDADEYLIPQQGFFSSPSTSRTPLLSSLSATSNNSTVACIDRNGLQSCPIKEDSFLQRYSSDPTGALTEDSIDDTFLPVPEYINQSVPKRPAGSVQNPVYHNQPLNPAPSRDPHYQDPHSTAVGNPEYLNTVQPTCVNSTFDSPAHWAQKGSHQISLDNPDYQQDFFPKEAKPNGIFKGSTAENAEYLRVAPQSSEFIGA

EGFR (human), sequence (P00533 whole entry, looked up): as above

Compound	IC50 (EGFR (human))	IC50 (EGFR)
COc1ccc(C(=O)Nc2ccc(Oc3ccnc4cc(OC)c(OC)cc34)cc2)cc1OC	> 100 µM	
COc1cc(OC)cc(Oc2ccnc3cc(OC)c(OC)cc23)c1	49 µM	
COc1cc2nccc(Oc3ccc(C(=O)c4ccc(Cl)cc4)cc3)c2cc1OC	> 100 µM	
COc1cc2nccc(Oc3ccc(C(=O)c4ccc(F)cc4)cc3)c2cc1OC	75 µM	
COc1cc2nccc(Oc3ccc(C(=O)c4ccc(C#N)cc4)cc3)c2cc1OC	> 100 µM	
CCCCc1ccc(C(=O)c2ccc(Oc3ccnc4cc(OC)c(OC)cc34)cc2)cc1	> 100 µM	
COc1cc2nccc(Oc3ccccc3OC)c2cc1OC	92 µM	
COc1cc2nccc(Oc3ccc(NC(=O)c4cccs4)cc3)c2cc1OC	> 100 µM	
COc1cccc(Oc2ccnc3cc(OC)c(OC)cc23)c1	18 µM	
COc1cc2nccc(Oc3cccc(OC)c3OC)c2cc1OC	> 100 µM	
COc1cc2nccc(Oc3ccc(C(=O)c4cccs4)cc3)c2cc1OC	16 µM	
COc1cc2nccc(Oc3ccc(NC(=O)c4ccc(C(C)(C)C)cc4)cc3)c2cc1OC	> 100 µM	> 100 µM
COc1cc2nccc(Oc3ccc(N(C)C(=O)c4ccc(C(C)(C)C)cc4)cc3)c2cc1OC	6 µM	
COc1cc2nccc(Oc3ccc(C(=O)c4ccc(C)cc4)cc3)c2cc1OC	> 100 µM	
COc1cc2nccc(Oc3ccccc3)c2cc1OC	50 µM	
COc1cc2nccc(Oc3cccc([N+](=O)[O-])c3)c2cc1OC	35 µM	
COc1cc2nccc(Oc3ccc(C(=O)c4cccc(C(F)(F)F)c4)cc3)c2cc1OC	> 100 µM	
COc1cc2nccc(Oc3cccc(C(C)=O)c3)c2cc1OC	> 100 µM	
COc1cc2nccc(Oc3ccc(C(=O)c4ccco4)cc3)c2cc1OC	> 100 µM	
COc1cc2nccc(Oc3cccc(NC(=O)c4ccc(C(C)(C)C)cc4)c3)c2cc1OC	0.65 µM	

Compound	IC50 (EGFR (human))	IC50 (EGFR)
COc1cc2nccc(Oc3ccc(NC(=O)C4CCCCC4)cc3)c2cc1OC	> 100 µM	
COc1cc2nccc(Oc3ccc(C(C)=O)cc3)c2cc1OC	> 100 µM	
COc1cc2nccc(Oc3cccc(O)c3)c2cc1OC	19 µM	
COc1cc2nccc(Oc3ccc(NC(=O)C4CCCC4)cc3)c2cc1OC	> 100 µM	
COc1cc2nccc(Oc3ccc(C(=O)c4ccc(C(F)(F)F)cc4)cc3)c2cc1OC	> 100 µM	
COc1cc2nccc(Oc3ccc(C(=O)C4CCCCC4)cc3)c2cc1OC	> 100 µM	
COc1cc2nccc(Oc3ccc(NC(=O)c4ccc(C(C)=O)cc4)cc3)c2cc1OC	> 100 µM	
COc1cc2nccc(Oc3ccc(NC(=O)c4ccc(C(F)(F)F)cc4)cc3)c2cc1OC	93 µM	
COc1cc2nccc(Oc3ccc(C(=O)Nc4ccc(C(C)(C)C)cc4)cc3)c2cc1OC	30 µM	
COc1cc2nccc(Oc3ccc(Br)cc3)c2cc1OC	20 µM	
COc1cc2nccc(Oc3ccc(NC(=O)c4ccc(-c5ccccc5)cc4)cc3)c2cc1OC	> 100 µM	
COc1cc2nccc(Oc3ccc(C(=O)c4cccc(F)c4)cc3)c2cc1OC	28 µM	
COc1cc2nccc(Oc3ccc(NC(C)=O)cc3)c2cc1OC	> 100 µM	
COc1cc2nccc(Oc3ccccc3C(=O)c3ccccc3)c2cc1OC	14 µM	
COc1cc2nccc(Oc3ccc(C(=O)c4ccc([N+](=O)[O-])cc4)cc3)c2cc1OC	> 100 µM	
COc1cc2nccc(Oc3ccc(C(=O)c4ccccc4C)cc3)c2cc1OC	43 µM	
CCCCOc1ccc(C(=O)Nc2ccc(Oc3ccnc4cc(OC)c(OC)cc34)cc2)cc1	> 100 µM	
COc1cc2nccc(Oc3ccccc3N)c2cc1OC	< 10 µM	
COc1cc2nccc(Oc3cccc(N)c3)c2cc1OC	40 µM	
COc1cc2nccc(Oc3ccc(C(=O)c4ccc(C(C)(C)C)cc4)cc3)c2cc1OC	> 100 µM	> 100 µM

Compound	IC50 (EGFR (human))	IC50 (EGFR)
COc1cc2nccc(Oc3ccc(C(=O)c4ccc(Br)cc4)cc3)c2cc1OC	> 100 µM	
COc1cc2nccc(Oc3ccc(C(=O)c4ccc(OC(F)(F)F)cc4)cc3)c2cc1OC	> 100 µM	
COc1cc2nccc(Oc3ccc(C(=O)c4ccccc4)cc3)c2cc1OC	50 µM	
COc1cc2nccc(Oc3ccc(C(=O)c4ccc(I)cc4)cc3)c2cc1OC	> 100 µM	
COc1cc2nccc(Oc3ccc(NC(=O)c4ccc(Br)cc4)cc3)c2cc1OC	48 µM	
COc1cc2nccc(Oc3ccc(C(=O)c4ccccc4C(F)(F)F)cc3)c2cc1OC	21 µM	
COc1cc2nccc(Oc3c(OC)cccc3OC)c2cc1OC	81 µM	
COc1cc2nccc(Oc3ccc(C(=O)c4cccc(C)c4)cc3)c2cc1OC	95 µM	
COc1cc2nccc(Oc3ccc(C(=O)c4ccc(-c5ccccc5)cc4)cc3)c2cc1OC	> 100 µM	
COc1cc2nccc(Oc3cccc(C)c3)c2cc1OC	14 µM	
COc1cc2nccc(Oc3cccc(C(=O)c4ccccc4)c3)c2cc1OC	89 µM	
COC(=O)c1cccc(Oc2ccnc3cc(OC)c(OC)cc23)c1	> 100 µM	
COc1cc2nccc(Oc3ccc(O)cc3)c2cc1OC	16 µM	
COc1cc2nccc(Oc3ccc(NC(=O)c4ccc([N+](=O)[O-])cc4)cc3)c2cc1OC	> 100 µM	
COc1cc2nccc(Oc3ccc(C(=O)c4ccc(Cl)c(Cl)c4)cc3)c2cc1OC	31 µM	
COc1ccc(Oc2ccnc3cc(OC)c(OC)cc23)cc1	44 µM	
COc1cc2nccc(Oc3cccc(F)c3)c2cc1OC	24 µM	
COc1cc2nccc(Oc3ccc(NC(=O)c4ccco4)cc3)c2cc1OC	> 100 µM	
CCCCc1ccc(C(=O)Nc2ccc(Oc3ccnc4cc(OC)c(OC)cc34)cc2)cc1	> 100 µM	
COc1cc2nccc(Oc3ccc(N)cc3)c2cc1OC	> 100 µM	
